# Assay results: patent US20220087969A1, “METHOD FOR TREATING ASTHMA” (Olatec Therapeutics LLC, priority 2019, published 2022)
# Key:
# [1] = test system: OVA-induced allergic airway inflammation; experiment: Airway resistance in methacholine provocation test, OVA model, i.p. dapansutrile; format: in vivo, C57BL/6j mice; details: 60 mg/kg i.p., Day 29, 100 mg/mL methacholine
# Method: C57BL/6j mice were sensitized to OVA (ovalbumin) by three intraperitoneal (i.p.) injections of 10 μg OVA adsorbed to 150 mg aluminum hydroxide on days 1, 14, and 21. This sensitization results in an adoptive immune response against OVA with OVA-specific TH2 cells and the production of OVA-specific antibodies of the subclasses IgE and […]. To induce acute allergic airway inflammation, mice were exposed three times to an OVA aerosol (1% w/v in PBS) on days 26, 27, and 28. Healthy control animals (healthy group) were sham sensitized to PBS and subsequently challenged with PBS aerosol. […] The following readouts were measured according to Lunding, 2015b. • General infiltration of inflammatory cells into the broncheoalveolar lumen • Determination of the specific infiltration of eosinophils, neutrophils and lymphocytes by histologic differentiation of the bronchoalveolar lavage (BAL) cells. • Goblet cell hyperplasia by CAST system (Computer Assisted Stereological Toolbox), including making microscopic pictures of the airways. • Airway resistance in response to methacholine to determine the airway hyperresponsiveness. Specifically, inflammatory cell subpopulations (eosinophils, macrophages, neutrophils, lymphocytes) infiltrating the bronchoalveolar lumen were quantified using cyto-spinned and quick-diff-stained cells from bronchoalveolar lavage fluids (BALF). […]
# [2] = test system: IFN-γ, TNFα, IL-1β, IL-4, IL-5, IL-6, IL-10, IL-13, and IL17A; experiment: Cytometric bead array of cytokines in BALF of Example 1; format: in vivo, C57BL/6j mice; details: 60 mg/kg i.p., treated vs asthmatic mice
# Excerpt: Cytometric bead arrays were used as a method to assess the concentration of cytokines of IFN-γ, TNFα, IL-1β, IL-4, IL-5, IL-6, IL-10, IL-13, and IL17A) in the BALF of Example 1. The beads in this array were coated with antibodies specific against a variety of cytokines, some relevant and known to be affected by NLRP3 signaling.
smiles,measurement,setting,value
"CS(=O)(=O)CCC#N [dapansutrile, 3-methanesulfonylpropionitrile]",reduction of airway resistance,"[1]; vs asthmatic mice, p<0.0001",about 60%
same,airway resistance in response to methacholine,"[1]; treated mice, asthmatic 5.61, healthy 2.83",3.93 cm H2O·sec·ml^−1
same,concentrations of all measured cytokines in BALF,[2],some reduction
same,IL-1β concentration in BALF,[2]; p<0.001,statistically significant reduction
same,IL-6 concentration in BALF,[2]; p<0.05,statistically significant reduction
